Tests used:
[1] = test system: LDL; assay: LDL antioxidation test (CuCl2-initiated LDL oxidation, lag time); type: biochemical, human; details: Table 2, 10 μM; for Lag Time: control 20 min
[2] = Distribution of isoflavones in lipoprotein subfractions of whole plasma; type: in vitro ADME
Description: Cpd. 1 ([…]), was incubated with whole plasma for 0 h, 4 h and 8 h. The different subfractions LDL/VLDL, HDL and protein (lipoprotein free) were then analysed for their Cpd. 1 concentration. Cpd. 1 was used because it had the most similar polarity to the isoflavone synthetic derivatives.

[3] = test system: rat thoracic aorta; assay: Contractile curves to noradrenaline in rat isolated aortic rings (Protocol 1); details: test compound 1 μg/ml
Description: (§1) Male Sprague-Dawley rats (250±50 g) were gassed with 80% CO2 and 20% O2 until killed. The thoracic aorta was excised and quickly placed in ice-cold Krebs modified solution composed of NaCl […], […] 4.7 mM, MgSO4 7H2O 1.17 mM, NaHCO3 25 mM, KH2PO4 1.18 mM, CaCl2 2.5 mM, glucose 11 mM and EDTA 0.03 mM. It was then trimmed of fat and connective tissue and cut into 2-3 mm wide rings. Each ring was mounted on two parallel stainless steel hooks in a single water-jacketed 3 ml organ bath containing modified Krebs solution maintained at 37° C. and bubbled with 95% O2 plus 5% CO2. The lower hook was attached to a movable support leg and the upper hook to an FTO3 force transducer (Grass Scientific Instruments, Mitutoyo, Japan) for isometric recordings. Changes in force were amplified (Quadbridge amplifier, Scientific Concepts Inc., Victoria, Australia) and recorded on a MacLab 8E data acquisition system (Adinstruments Pty Ltd., NSW, Australia) linked to an Apple computer (Apple Computer Inc, Cupertina, Calif.). Rings were set at an initial tension of 2 g and allowed to equilibrate for 30 minutes after which time they were re-set to 2 g tension before the commencement of each experimental protocol.
Full concentration-contractile curves were obtained to noradrenaline (0.1 nM-[…]) in the absence and presence of β-estradiol (1 μg/ml); Cpd. 5 (0.1 and 1 μg/ml); Cpd. 7 (0.1 and 1 μg/ml); Cpd. 8 (0.1 and 1 μg/ml) and Cpd. 12 (1 μg/ml) and the vehicle equi-volume DMSO. Only one compound at any one concentration was tested on any one ring from any one animal.
(§2) Contractile responses are expressed in g tension (mean+standard error of the mean). Dilatory responses are expressed as a percentage of the contractile force generated by the pre-constricting agent used. Individual concentration-response curves for noradrenaline and acetylcholine±the interventions used were fitted to a logistic equation of the form […] where E is the response, M is the maximum response and K is the concentration eliciting 50% of the maximum response (ie neg log EC50).

[4] = test system: rat isolated aortic rings; assay: Vasodilatory capacity in noradrenaline pre-constricted aortic rings and mechanism of action (Protocol 2a/2b)
Description: as §1
A full concentration response to noradrenaline was obtained. From this the concentration producing a submaximal contraction of approximately 80% was selected (0.03-0.3 μM). The ring was then constricted with this submaximal concentration and allowed to plateau before full concentration-relaxation curves were obtained to β-estradiol and Cpds. 5, 7, 8 and 12 and the vehicle DMSO (at equi-volume). Only one compound was studied with any one ring from any one animal.
Full relaxation curves were obtained to Cpds. 5, 7, 8 and 12 and β-estradiol in the absence and presence of the endothelium (rings were denuded of endothelium by gentle rotation of the lumen against a rough surface), the nitric oxide synthase inhibitor nitro-L-arginine (NOLA 10 μM; with the exception of Cpd. 8, due to limited supply of the compound), KCl 40 mM (to inhibit endothelium derived hyperpolarising factor), the cyclo-oxygenase inhibitor indomethacin (10 μM) and the soluble guanylate cyclase inhibitor 1H-[1,2,4]oxadiazolo[4,3-a]quinoxalin-1-one (ODQ; 10 μM). Only one compound with only one intervention was tested on any one ring from any one animal.
as §2

[5] = test system: rat isolated aortic rings; assay: Protection against endothelium damage induced by oxidised LDL, acetylcholine dilatation (Protocol 3); details: ox-LDL 0.3 mg protein/ml; β-estradiol 10 pg/ml, Cpd. 5 300 ng/ml, Cpd. 7 1 μg/ml, Cpd. 8 and 12 3 μg/ml
Description: as §1
Full concentration response curves to phenylephrine were constructed from which the concentration giving a submaximal contraction of approximately 80% was selected (usually 0.3 μM). Tissues were then constricted with phenylephrine at the selected concentration and allowed to plateau. Full concentration dilatory curves were then constructed to acetylcholine. […]
Human plasma was obtained from the blood bank. […] The protein content of the final LDL fraction obtained was determined by the simplified protein assay method of Lowry. […]
Contractile responses are expressed in g tension (mean+standard error of the mean). Dilatory responses are expressed as a percentage of the contractile force generated by the pre-constricting agent used. […]

[6] = test system: IMA-derived human VSMC primed with PDGF BB; assay: PDGF BB-induced VSMC DNA synthesis, proliferation and cell number; type: cell-based; details: Homo sapiens, VSMC, 3 h, read-out: inhibition of PDGF BB-induced DNA synthesis ([3H]-thymidine incorporation)
Description: Cell proliferation was induced by a variety of growth factors such as serum and platelet derived growth factor (PDGF).
Media was changed to LG serum-free DMEM and cells were treated with [^3H]-thymidine at 1 μCi/well for 3 hours. Cells were washed twice with ice cold Dulbecco's PBS. Next, ice cold 0.2M HClO4 (1 ml/well) was added and cells were incubated on ice for 30 min. Cells were then washed three times with 0.5 ml/well of ice cold 0.2M HClO4. Media (0.5 ml/well of 0.2 M NaOH) was replaced and cells were incubate at 37° C. After 1 hour, cells were treated with acetic acid (6%, 0.2 ml/well), transferred to scintillation vials with 3 ml scintillation liquid (Instagel) and counted for 2 min per vial.
The effect of Cpd. 5 and Cpd. 7 was tested further in IMA-derived human VSMC primed with PDGF BB instead of serum. […] (FIG. 12). This effect was equivalent to that observed with estradiol. Cpd.
In further experiments Cpd. […] 7 at 100 nmol/L), indicating ER-mediation. […] 7 (1-100 nmol/L).

[7] = 45 mg over 5 to 10 weeks; cited from earlier work

SMILES: COc1ccc(-c2coc3cc(O)cc(O)c3c2=O)cc1 [Biochanin]
- % Increase in Time [1]: 0%
- Lag Time [1]: 20 min

SMILES: COc1cc2c(=O)c(-c3ccc(O)cc3)coc2cc1O [Glycitein]
- % Increase in Time [1]: 0%
- Lag Time [1]: 20 min

SMILES: O=c1c(-c2ccc(O)cc2)coc2cc(O)ccc12 [Cpd. 1, daidzein]
- amount associated with the lipoproteins, dependence on time and concentration [2]: increased with time, but not with concentration
- % Increase in Time [1]: 0%
- Lag Time [1]: 19 min

SMILES: C[C@]12CC[C@@H]3c4ccc(O)cc4CC[C@H]3[C@@H]1CC[C@@H]2O [β-estradiol, 1,3,5[10]-estratriene-3,17β-diol, reference compound]
- y max, Noradrenaline + Test compound (B) ([3]; mean ± SEM): 0.22 ± 0.12 g tension
- y max Difference (A − B) ([3]; noradrenaline alone minus noradrenaline + compound): 2.1 ± 0.31 g tension
- vasodilatory response: effect of high KCl levels ([4]; KCl 40 mM): inhibited
- vasodilatory response: effect of nitro-L-arginine (NOLA) ([4]; NOLA 10 μM): inhibited
- vasodilatory response: effect of ODQ ([4]; ODQ 10 μM): inhibited
- vasodilatory response: effect of removal of the endothelium ([4]; denuded vs intact endothelium): inhibited
- vasodilatory response: effect of indomethacin ([4]; indomethacin 10 μM): did not influence
- protective effect against ox-LDL inhibition of acetylcholine dilatation (in words) [5]: diminished the effect of ox-LDL
- inhibition at 0.001 µM [6]: 27%
- inhibition at 0.01 µM [6]: 27%
- inhibition at 0.1 µM [6]: 33%

SMILES: O=c1c(-c2ccc(O)cc2)coc2cc(O)cc(O)c12 [Cpd. 3, genistein]
- % Increase in Time [1]: 0%
- Lag Time [1]: 20 min
- effect on blood lipid concentrations [7]: no significant effect on blood lipid concentrations

— patent US20050119301A1, “Treatment of restenosis” (priority 2001, published 2005)
